Activity calls are given as the source filed them. No cut-off for these calls is given here.
Legend:
Plasmodium falciparum [1] = assay: Antimalarial activity against chloroquine-sensitive Plasmodium falciparum D6 infected in RBC after 72 hrs by LDH release assay; type: functional, organism-based; conditions: D6, 72 h
[2] = Selectivity index, ratio of IC50 for cytotoxicity against African green monkey Vero cells to IC50 for chloroquine-sensitive Plasmodium falciparum D6; type: toxicity, cell-based; conditions: read-out: Ratio IC50
Vero [3] = assay: Cytotoxicity against African green monkey Vero cells up to 10 uM after 48 hrs by neutral red assay; type: cell-based; conditions: chlorocebus sabaeus
Plasmodium falciparum [4] = assay: Antimalarial activity against chloroquine-resistant Plasmodium falciparum W2 infected in RBC after 72 hrs by LDH release assay; type: functional, organism-based; conditions: W2, 72 h
[5] = Selectivity index, ratio of IC50 for cytotoxicity against African green monkey Vero cells to IC50 for chloroquine-resistant Plasmodium falciparum W2; type: toxicity, cell-based; conditions: read-out: Ratio IC50
Vero [6] = assay: Cytotoxicity against African green monkey Vero cells after 48 hrs by neutral red assay; type: cell-based; conditions: chlorocebus sabaeus
[7] = Binding affinity to hemin assessed as 1:1 stoichiometry for compound-hemin complex up to 12 uM at pH 5.6 by Job's plot analysis
mu-oxodimeric heme = assay: Binding affinity to mu-oxodimeric heme assessed as 1:1 up to 20 uM at pH 5.8 by titration method
[8] = Binding affinity to hemin assessed as 1:1 stoichiometry for compound-hemin complex up to 12 uM at pH 7.4 by Job's plot analysis
Plasmodium falciparum [9] = assay: Potency index, ratio of chloroquine IC50 to compound IC50 for antimalarial activity against chloroquine-resistant Plasmodium falciparum W2 infected in RBC; type: functional

Cc1cc(N(CCNc2ccnc3cc(Cl)ccc23)Cc2ccccn2)nc(N2CCOCC2)n1
IC50 (Plasmodium falciparum [1]): 152 nM | selectivity ratio [2]: > 64.2 | Activity (Vero [3]): Non-Toxic | IC50 (Plasmodium falciparum [4]): 526 nM | selectivity ratio [5]: > 18.5

Cc1cc(N(CCCNc2ccnc3cc(Cl)ccc23)Cc2ccccn2)nc(N2CCN(C)CC2)n1
IC50 (Plasmodium falciparum [1]): 426 nM | selectivity ratio [2]: > 21.6 | Activity (Vero [3]): Non-Toxic | IC50 (Plasmodium falciparum [4]): 243 nM | selectivity ratio [5]: > 37.8

Cc1cc(N(CCCNc2ccnc3cc(Cl)ccc23)Cc2cccs2)nc(N2CCCCC2)n1
IC50 (Plasmodium falciparum [1]): 83.7 nM | selectivity ratio [2]: 109 | IC50 (Vero [6]): 9150 nM | IC50 (Plasmodium falciparum [4]): 235 nM | selectivity ratio [5]: 38.9

Cc1cc(N2CCOCC2)nc(N(CCNc2ccnc3cc(Cl)ccc23)Cc2ccccn2)n1
IC50 (Plasmodium falciparum [1]): 311 nM | selectivity ratio [2]: > 31.2 | Activity (Vero [3]): Non-Toxic | IC50 (Plasmodium falciparum [4]): 248 nM | selectivity ratio [5]: > 39.1

Cc1cc(N(CCNc2ccnc3cc(Cl)ccc23)Cc2ccccn2)nc(N2CCN(C)CC2)n1
Activity [7]: 0.5 molar ratio | Activity (Vero [3]): Non-Toxic | Activity (mu-oxodimeric heme): Active | Activity [8]: 0.5 molar ratio | IC50 (Plasmodium falciparum [4]): 142 nM

Cc1cc(N(CCNc2ccnc3cc(Cl)ccc23)Cc2ccccn2)nc(N2CCCC2)n1
IC50 (Plasmodium falciparum [1]): 30 nM | selectivity ratio [2]: > 331 | Activity (Vero [3]): Non-Toxic | IC50 (Plasmodium falciparum [4]): 143 nM | selectivity ratio [5]: > 70

Cc1cc(N2CCCC2)nc(N(CCNc2ccnc3cc(Cl)ccc23)Cc2ccccn2)n1
IC50 (Plasmodium falciparum [1]): 140 nM | selectivity ratio [2]: > 71.7 | Activity (Vero [3]): Non-Toxic | IC50 (Plasmodium falciparum [4]): 855 nM | selectivity ratio [5]: > 11.7

Clc1ccc2c(NCCCNCc3cccs3)ccnc2c1
IC50 (Plasmodium falciparum [1]): 424 nM | selectivity ratio [2]: > 33.8 | Activity (Vero [3]): Non-Toxic | IC50 (Plasmodium falciparum [4]): 75.1 nM | selectivity ratio [5]: > 19.1

CCN1CCN(c2cc(C)nc(N(CCCNc3ccnc4cc(Cl)ccc34)Cc3cccs3)n2)CC1
IC50 (Plasmodium falciparum [1]): 32.8 nM | selectivity ratio [2]: > 27 | Ratio IC50 (Plasmodium falciparum [9]): 22 | Activity (Vero [3]): Non-Toxic | IC50 (Plasmodium falciparum [4]): 18.9 nM | selectivity ratio [5]: > 46.8

Cc1cc(N(CCCNc2ccnc3cc(Cl)ccc23)Cc2ccccn2)nc(N2CCOCC2)n1
IC50 (Plasmodium falciparum [1]): 114 nM | selectivity ratio [2]: > 82.5 | Activity (Vero [3]): Non-Toxic | IC50 (Plasmodium falciparum [4]): 511 nM | selectivity ratio [5]: > 18.5

Cc1cc(N(CCCNc2ccnc3cc(Cl)ccc23)Cc2ccccn2)nc(N2CCCC2)n1
IC50 (Plasmodium falciparum [1]): 36 nM | selectivity ratio [2]: > 274 | Activity (Vero [3]): Non-Toxic | IC50 (Plasmodium falciparum [4]): 140 nM | selectivity ratio [5]: > 69

Cc1cc(N2CCOCC2)nc(N(CCCNc2ccnc3cc(Cl)ccc23)Cc2ccccn2)n1
IC50 (Plasmodium falciparum [1]): 1140 nM | selectivity ratio [2]: > 8.3 | Activity (Vero [3]): Non-Toxic | IC50 (Plasmodium falciparum [4]): 334 nM | selectivity ratio [5]: > 28.3

Cc1cc(N2CCCCC2)nc(N(CCCNc2ccnc3cc(Cl)ccc23)Cc2cccs2)n1
IC50 (Plasmodium falciparum [1]): 44.6 nM | selectivity ratio [2]: 161 | IC50 (Vero [6]): 7200 nM | IC50 (Plasmodium falciparum [4]): 185 nM | selectivity ratio [5]: 38.9

Cc1cc(N(CCNc2ccnc3cc(Cl)ccc23)Cc2ccccn2)nc(N2CCCCC2)n1
IC50 (Plasmodium falciparum [1]): 65 nM | selectivity ratio [2]: > 151 | Activity (Vero [3]): Non-Toxic | IC50 (Plasmodium falciparum [4]): 494 nM | selectivity ratio [5]: > 19.7

Cc1cc(N2CCN(C)CC2)nc(N(CCCNc2ccnc3cc(Cl)ccc23)Cc2ccccn2)n1
IC50 (Plasmodium falciparum [1]): 551 nM | selectivity ratio [2]: > 16.7 | Activity (Vero [3]): Non-Toxic | IC50 (Plasmodium falciparum [4]): 189 nM | selectivity ratio [5]: > 48.5

CCN1CCN(c2cc(C)nc(N(CCNc3ccnc4cc(Cl)ccc34)Cc3ccccn3)n2)CC1
IC50 (Plasmodium falciparum [1]): 34 nM | selectivity ratio [2]: > 270 | Activity (Vero [3]): Non-Toxic | IC50 (Plasmodium falciparum [4]): 39 nM | selectivity ratio [5]: > 273

Cc1cc(N(CCCNc2ccnc3cc(Cl)ccc23)Cc2ccccn2)nc(Cl)n1
IC50 (Plasmodium falciparum [1]): 1390 nM | selectivity ratio [2]: > 7.6 | Activity (Vero [3]): Non-Toxic | IC50 (Plasmodium falciparum [4]): 319 nM | selectivity ratio [5]: > 33.5

Cc1cc(N2CCN(C)CC2)nc(N(CCNc2ccnc3cc(Cl)ccc23)Cc2ccccn2)n1
IC50 (Plasmodium falciparum [1]): 40 nM | selectivity ratio [2]: > 238 | Activity (Vero [3]): Non-Toxic | IC50 (Plasmodium falciparum [4]): 139 nM | selectivity ratio [5]: > 68

Cc1cc(N(CCCNc2ccnc3cc(Cl)ccc23)Cc2cccs2)nc(N2CCN(C)CC2)n1
IC50 (Plasmodium falciparum [1]): 37 nM | selectivity ratio [2]: > 24.6 | Activity (Vero [3]): Non-Toxic | IC50 (Plasmodium falciparum [4]): 38.7 nM | selectivity ratio [5]: > 23.5

Reference: ChEMBL document CHEMBL4325903, “N-Substituted aminoquinoline-pyrimidine hybrids: Synthesis, in vitro antimalarial activity evaluation and docking studies” (Eur J Med Chem, 2019)
